One assay has as its target human orexin-2 receptor (Homo sapiens (Human), UniProt O43614). Put plainly: Intracellular calcium measurement (FLIPR), CHO cells expressing human orexin-2 receptor, 3 nM orexin-A. It is filed as cell-based. The following applies: read-out: IC50 OX2. Summed up: (§1)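 CHO transfectants were dye-loaded (fluo-4 AM, probenecid) and exposed to antagonist for 120 min ahead of agonist.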
(Calcium assays in cells follow changes in intracellular calcium, usually with a dye or a luminescent sensor.)

A further assay has as its target orexin-1 (Homo sapiens (Human), UniProt O43613). Put plainly: Intracellular calcium measurement (FLIPR), CHO cells expressing human orexin-1 receptor, 3 nM orexin-A. The format is cell-based. As to conditions: read-out: IC50 OX1. Put shortly:
as §1

Where [1] appears, read: CHO cells expressing human orexin-2 receptor, FLIPR, 3 nM orexin-A, geometric mean if determined several times.
[2] abbreviates: CHO cells expressing human orexin-1 receptor, FLIPR, 3 nM orexin-A, geometric mean if determined several times.

pIC50: −log10 of the molar value. Where two headings read alike, the source gives them in different places.

human orexin-2 receptor, sequence (O43614 whole entry): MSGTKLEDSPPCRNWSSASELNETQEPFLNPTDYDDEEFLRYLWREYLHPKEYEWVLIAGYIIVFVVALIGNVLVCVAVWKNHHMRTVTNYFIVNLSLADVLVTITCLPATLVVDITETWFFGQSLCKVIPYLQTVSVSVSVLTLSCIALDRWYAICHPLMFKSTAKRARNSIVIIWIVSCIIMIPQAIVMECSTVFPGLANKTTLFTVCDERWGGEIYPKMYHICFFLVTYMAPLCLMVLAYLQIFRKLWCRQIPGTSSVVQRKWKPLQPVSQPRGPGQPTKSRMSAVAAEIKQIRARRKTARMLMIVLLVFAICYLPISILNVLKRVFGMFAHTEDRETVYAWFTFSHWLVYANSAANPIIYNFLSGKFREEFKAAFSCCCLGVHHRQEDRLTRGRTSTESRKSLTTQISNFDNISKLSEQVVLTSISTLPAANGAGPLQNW
orexin-1, sequence (O43613 whole entry): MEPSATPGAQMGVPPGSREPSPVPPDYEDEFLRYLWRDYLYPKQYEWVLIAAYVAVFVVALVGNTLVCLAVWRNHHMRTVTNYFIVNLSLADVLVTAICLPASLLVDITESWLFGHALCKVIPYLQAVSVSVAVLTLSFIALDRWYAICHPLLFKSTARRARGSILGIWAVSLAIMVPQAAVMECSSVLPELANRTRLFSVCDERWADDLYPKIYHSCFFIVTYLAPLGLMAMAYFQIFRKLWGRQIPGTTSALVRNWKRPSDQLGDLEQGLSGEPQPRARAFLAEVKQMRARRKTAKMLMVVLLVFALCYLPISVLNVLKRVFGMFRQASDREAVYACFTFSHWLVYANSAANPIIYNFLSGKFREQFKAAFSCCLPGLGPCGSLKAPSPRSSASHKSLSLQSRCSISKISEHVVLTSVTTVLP

For the molecule `Cc1ccc(-n2nccn2)c(C(=O)N2CCC[C@H]2c2cnc(-c3cccc(Cl)c3C)[nH]2)c1` [compound 521], the results for the negative logarithm of the IC50 (pIC50) on human orexin-2 receptor (setting [1]) and on orexin-1 (setting [2]) were 6.17 and 5.60, respectively.

With `Cc1ccc(C(=O)N2CCC[C@H]2c2cnc(-c3cccc(Cl)c3C)[nH]2)c(-n2nccn2)c1` [compound 522], the pIC50 (usually −log10 of the IC50, conventionally taken in molar units) was 6.44 at human orexin-2 receptor and 5.68 on orexin-1.

Regarding `Cc1ccc(-n2nccn2)c(C(=O)N2CCC[C@H]2c2ncc(-c3cccc(Cl)c3)[nH]2)c1` [compound 523], the pIC50 is 6.99 at human orexin-2 receptor (setting [1]) and 6.37 on orexin-1 (setting [2]).

As to `COc1cccc(-c2cnc([C@@H]3CCCN3C(=O)c3cc(C)ccc3-n3nccn3)[nH]2)c1` [compound 524, {(S)-2-[5-(3-Methoxy-phenyl)-1H-imidazol-2-yl]-pyrrolidin-1-yl}-(5-methyl-2-[1,2,3]triazol-2-yl-phenyl)-methanone], the negative-log IC50 (pIC50) at human orexin-2 receptor (setting [1]) was 7.35; on orexin-1 (setting [2]) it was 6.15.

Regarding `Cc1ccc(-n2nccn2)c(C(=O)N2CCC[C@H]2c2ncc(-c3cccc(Cl)c3C)[nH]2)c1` [compound 525, {(S)-2-[5-(3-Chloro-2-methyl-phenyl)-1H-imidazol-2-yl]-pyrrolidin-1-yl}-(5-methyl-2-[1,2,3]triazol-2-yl-phenyl)-methanone], the pIC50 at human orexin-2 receptor (setting [1]) was 7.06; on orexin-1 (setting [2]) it was 6.46.

As for `CCOc1ccccc1-c1cnc([C@@H]2CCCN2C(=O)c2cc(C)ccc2-n2nccn2)[nH]1` [compound 526, {(S)-2-[5-(2-Ethoxy-phenyl)-1H-imidazol-2-yl]-pyrrolidin-1-yl}-(5-methyl-2-[1,2,3]triazol-2-yl-phenyl)-methanone], the negative logarithm of the IC50 (pIC50) at human orexin-2 receptor (setting [1]) was 8.30; at orexin-1 (setting [2]) it was 7.55.

In the case of `Cc1ccc(-n2nccn2)c(C(=O)N2CCC[C@H]2c2ncc(-c3ccccc3)[nH]2)c1` [compound 527, (5-Methyl-2-[1,2,3]triazol-2-yl-phenyl)-[(S)-2-(5-phenyl-1H-imidazol-2-yl)-pyrrolidin-1-yl]-methanone], the figures for the pIC50 on human orexin-2 receptor (setting [1]) and at orexin-1 (setting [2]) were 6.96 and 6.41, respectively.

With `Cc1ccc(-n2nccn2)c(C(=O)N2CCC[C@H]2c2ncc(-c3ccccc3C(F)(F)F)[nH]2)c1` [compound 528, (5-Methyl-2-[1,2,3]triazol-2-yl-phenyl)-{(S)-2-[5-(2-trifluoromethyl-phenyl)-1H-imidazol-2-yl]-pyrrolidin-1-yl}-methanone], the figures for the pIC50 at human orexin-2 receptor (setting [1]) and on orexin-1 (setting [2]) were 6.93 and 6.31, respectively.

On to `Cc1ccc(-n2nccn2)c(C(=O)N2CCC[C@H]2c2ncc(-c3ccccc3OC(F)(F)F)[nH]2)c1` [compound 529, (5-Methyl-2-[1,2,3]triazol-2-yl-phenyl)-{(S)-2-[5-(2-trifluoromethoxy-phenyl)-1H-imidazol-2-yl]-pyrrolidin-1-yl}-methanone], for which the pIC50 at human orexin-2 receptor (setting [1]) is 8.70; at orexin-1 (setting [2]), 8.00.

Take `Cc1ccc(C(=O)N2CCC[C@H]2c2cc(-c3cccc(Cl)c3C)n[nH]2)c(-n2nccn2)c1` [compound 531]: the negative logarithm of the IC50 (pIC50) at human orexin-2 receptor (setting [1]) is 7.24; on orexin-1 it was 6.59.

For `Cc1ccc(-n2nccn2)c(C(=O)N2CCC[C@H]2c2cc(-c3ccccc3OC(F)(F)F)n[nH]2)c1` [compound 532, (5-Methyl-2-[1,2,3]triazol-2-yl-phenyl)-{(S)-2-[5-(2-trifluoromethoxy-phenyl)-2H-pyrazol-3-yl]-pyrrolidin-1-yl}-methanone], the negative-log IC50 (pIC50) at human orexin-2 receptor (setting [1]) is 6.84; on orexin-1 (setting [2]), 6.54.

As for `Cc1ccc(C(=O)N2CCC[C@H]2c2cc(-c3ccccc3OC(F)(F)F)n[nH]2)c(-n2nccn2)c1` [compound 533, (4-Methyl-2-[1,2,3]triazol-2-yl-phenyl)-{(S)-2-[5-(2-trifluoromethoxy-phenyl)-2H-pyrazol-3-yl]-pyrrolidin-1-yl}-methanone], the pIC50 at human orexin-2 receptor (setting [1]) was 7.09; on orexin-1 (setting [2]), 6.59.

Regarding `Cc1ccc(-n2nccn2)c(C(=O)N2CCC[C@H]2c2cc(-c3cccc(Cl)c3C)n[nH]2)c1` [compound 534], the results for the pIC50 on human orexin-2 receptor (setting [1]) and at orexin-1 (setting [2]) were 7.28 and 6.39, respectively.

Consider `C[C@@]1(c2nc(-c3ccccc3)no2)CCCN1C(=O)c1ncsc1-c1cccc(Cl)c1` [compound 538], for which the pIC50 at human orexin-2 receptor (setting [1]) is 5.55; on orexin-1 (setting [2]), 6.03.

In the case of `Cc1cccc(-c2ocnc2C(=O)N2CCC[C@@]2(C)c2nc(-c3ccccc3)no2)c1` [compound 539, [(S)-2-Methyl-2-(3-phenyl-[1,2,4]oxadiazol-5-yl)-pyrrolidin-1-yl]-(5-m-tolyl-oxazol-4-yl)-methanone], the pIC50 on human orexin-2 receptor (setting [1]) was 5.75; at orexin-1 (setting [2]), 6.25.

For the molecule `Cc1ccc(C(=O)N2CCC[C@@]2(C)c2nnc(-c3ccccc3OC(F)(F)F)[nH]2)c(-n2nccn2)c1` [compound 543, (4-Methyl-2-[1,2,3]triazol-2-yl-phenyl)-{(S)-2-methyl-2-[5-(2-trifluoromethoxy-phenyl)-4H-[1,2,4]triazol-3-yl]-pyrrolidin-1-yl}-methanone], the figures for the negative-log IC50 (pIC50) at human orexin-2 receptor (setting [1]) and on orexin-1 (setting [2]) were 7.70 and 8.00, respectively.

`Cc1cc(-n2nccn2)c(C(=O)N2CCC[C@@]2(C)c2nnc(-c3ccccc3OC(F)(F)F)[nH]2)cc1Cl` [compound 545]: the values for the negative logarithm of the IC50 (pIC50) on human orexin-2 receptor and on orexin-1 (setting [2]) were 8.10 and 8.40, respectively.

For `Cc1cc(C(=O)N2CCC[C@@]2(C)c2nnc(-c3ccccc3OC(F)(F)F)[nH]2)c(-n2nccn2)cc1C` [compound 546, (4,5-Dimethyl-2-[1,2,3]triazol-2-yl-phenyl)-{(S)-2-methyl-2-[5-(2-trifluoromethoxy-phenyl)-4H-[1,2,4]triazol-3-yl]-pyrrolidin-1-yl}-methanone], the pIC50 on human orexin-2 receptor (setting [1]) was 8.10; at orexin-1 (setting [2]), 8.40.

For `C[C@@]1(c2nnc(-c3ccccc3OC(F)(F)F)[nH]2)CCCN1C(=O)c1cc(Cl)ccc1-n1nccn1` [compound 547], the negative-log IC50 (pIC50) on human orexin-2 receptor (setting [1]) was 7.47; at orexin-1 (setting [2]), 7.60.

In the case of `Cc1ccc(C(=O)N2CCC[C@@]2(C)c2nnc(-c3ccccc3OC(F)(F)F)[nH]2)c(-c2ccccc2)c1` [compound 548, (5-Methyl-biphenyl-2-yl)-{(S)-2-methyl-2-[5-(2-trifluoromethoxy-phenyl)-4H-[1,2,4]triazol-3-yl]-pyrrolidin-1-yl}-methanone], the figures for the pIC50 at human orexin-2 receptor (setting [1]) and at orexin-1 (setting [2]) were 7.19 and 7.46, respectively.

With `Cc1ccc(-c2ccccc2)c(C(=O)N2CCC[C@@]2(C)c2nnc(-c3ccccc3OC(F)(F)F)[nH]2)c1` [compound 549, (4-Methyl-biphenyl-2-yl)-{(S)-2-methyl-2-[5-(2-trifluoromethoxy-phenyl)-4H-[1,2,4]triazol-3-yl]-pyrrolidin-1-yl}-methanone], the negative logarithm of the IC50 (pIC50) on human orexin-2 receptor (setting [1]) is 7.19; on orexin-1 (setting [2]), 7.51.

As to `Cc1ccc(-n2nccn2)c(C(=O)N2CCC[C@@]2(C)c2nnc(-c3cccc(Cl)c3C)[nH]2)c1` [compound 550], the values for the pIC50 on human orexin-2 receptor (setting [1]) and at orexin-1 (setting [2]) were 6.75 and 6.57, respectively.

For the molecule `Cc1ccc(C(=O)N2CCC[C@@]2(C)c2nnc(-c3cccc(Cl)c3C)[nH]2)c(-n2nccn2)c1` [compound 551], the results for the pIC50 at human orexin-2 receptor (setting [1]) and on orexin-1 (setting [2]) were 7.62 and 7.37, respectively.

For `Cc1cc(-n2nccn2)c(C(=O)N2CCC[C@@]2(C)c2nnc(-c3cccc(Cl)c3C)[nH]2)cc1Cl` [compound 552], the pIC50 was 8.15 on human orexin-2 receptor (setting [1]) and 8.05 at orexin-1 (setting [2]).

As for `Cc1cc(C(=O)N2CCC[C@@]2(C)c2nnc(-c3cccc(Cl)c3C)[nH]2)c(-n2nccn2)cc1C` [compound 553], the pIC50 on human orexin-2 receptor (setting [1]) was 8.22; on orexin-1 (setting [2]), 7.85.

The record behind these values is patent publication US9493446B2, “Orexin receptor antagonists which are [ortho bi-(hetero-)aryl]-[2-(meta bi-(hetero-)aryl)-pyrrolidin-1-yl]-methanone derivatives” (Actelion Pharmaceuticals Ltd, priority 2012, dated 2016).
